Assay [1] has as its system OCI-Ly3 ABC-DLBCL cell line. The assay is described as follows: 4-day proliferation assay OCI-Ly3. The assay is classed as cell-based. Particulars: Homo sapiens, 96 h; 10,000 OCI-Ly3 cells per well, 4 days, CellTiterGLO; read-out: Anti-proliferation: OCI-LY-3 IC50. The protocol:
To assess anti-proliferative effects, MALT1 inhibitor test compounds were tested in 4-day proliferation assays using three different DLBCL cell lines.
Cells should be kept between 0.5-2.5 million cells per mL during culturing and cells should be supplemented every 2-3 days with fresh 50 μM beta-mercaptoenthanol. No beta-mercaptoethanol is used during the proliferation assay. OCI-Ly7 cells were propagated in IMDM (ThermoFisher) supplemented with 10% fetal bovine serum (HyClone), 2 mM L-glutamine (Sigma Aldrich) and 50 μg/mL Gentamycin. Cell passage numbers should not exceed 30.
10,000 TMD8, 10,000 OCI-Ly3 or 2,000 OCI-Ly7 cells were seeded in 100 μL media per well and incubated for 4 days at 37° C. and 5% CO2. Cell plating numbers were chosen based on growth curves to ensure linear cell growth. After 4 days of incubation 50 μl CellTiterGLO reagent (Promega) were added to each well and luminescence was measured on the Envision after 10 min of incubation at room temperature.

Assay [2] has as its target T1, full-length MALT1 protein (Strep-MALT1(1-824)-His) (Homo sapiens, UniProt Q9UDY8).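 Further: fluorogenic LRSR-AMC substrate cleavage by MALT1, 50 min compound preincubation then 4 h reaction at RT, 11-point dilution from 30 µM, scaled between enzyme-free and untreated enzyme controls.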
T1 sequence (Q9UDY8 1-824): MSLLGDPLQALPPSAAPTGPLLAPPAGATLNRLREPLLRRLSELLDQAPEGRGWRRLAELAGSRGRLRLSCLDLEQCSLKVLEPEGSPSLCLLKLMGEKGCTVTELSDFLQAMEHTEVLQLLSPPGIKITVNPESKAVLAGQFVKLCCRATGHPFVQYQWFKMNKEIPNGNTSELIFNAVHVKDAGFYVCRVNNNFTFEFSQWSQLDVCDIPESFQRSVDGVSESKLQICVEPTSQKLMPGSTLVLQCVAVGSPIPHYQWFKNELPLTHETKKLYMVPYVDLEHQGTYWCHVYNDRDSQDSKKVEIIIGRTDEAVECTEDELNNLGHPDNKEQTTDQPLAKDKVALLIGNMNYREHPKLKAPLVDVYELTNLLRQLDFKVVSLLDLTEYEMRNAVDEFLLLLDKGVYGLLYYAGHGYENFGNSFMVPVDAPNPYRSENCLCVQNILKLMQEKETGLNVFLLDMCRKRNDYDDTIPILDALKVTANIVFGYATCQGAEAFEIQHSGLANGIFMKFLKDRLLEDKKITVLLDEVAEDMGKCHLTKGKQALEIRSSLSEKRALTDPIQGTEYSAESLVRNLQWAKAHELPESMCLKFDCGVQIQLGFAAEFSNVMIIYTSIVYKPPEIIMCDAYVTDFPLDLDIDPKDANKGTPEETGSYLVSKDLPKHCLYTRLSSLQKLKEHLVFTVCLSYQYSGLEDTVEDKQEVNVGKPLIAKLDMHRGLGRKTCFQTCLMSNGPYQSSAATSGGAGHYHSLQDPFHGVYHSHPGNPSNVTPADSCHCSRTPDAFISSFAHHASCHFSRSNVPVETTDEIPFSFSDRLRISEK
In words: biochemical.
Procedure: MALT1 protease activity was assessed in an in vitro assay using a tetrapeptide as substrate and full-length MALT1 protein (Strep-MALT1(1-824)-His) purified from baculovirus-infected insect cells. The tetrapeptide LRSR is coupled to AMC (7-amino-4-methylcoumarin) and provides a quenched, fluorescent substrate for the MALT1 protease (SM Biochemicals). Cleavage of AMC from the Arginine residue results in an increase in coumarin fluorescence measured at 460 nm (excitation 355 nm). […] Test compounds were spotted at 50 nL in 100% DMSO per well of a black 384-Proxiplate (Perkin Elmer). Test compound concentrations ranged from 30 μM to 0.5 nM using 11 dilution steps (1:3). Background signal was measured from control wells containing assay buffer without enzyme which functions as low control (LC). High control (HC) values were generated using the reaction with enzyme but no compound treatment. Compounds were pre-incubated with MALT1 enzyme for 50 minutes at RT. Substrate was added subsequently and fluorescence was measured in Labsystems fluoroskan at excitation 355 nm and emission 460 nm to determine time 0. The reaction was subsequently incubated for 4 h at RT and fluorescence was measured. […] The enzyme reaction was linear during the 4 h incubation period.
IC50 values were calculated using the following formula (Z prime should be >0.5):
From this an IC50 value (inhibitory concentration causing 50% inhibition) can be obtained. An estimate of the slope of the plot in terms of the Hill coefficient was also obtained.
With y=estimated response • UB=upper bound • LB=lower bound • h=hill

For assay [3], the system named is Secretion of IL10 by OCI-LY3 ABC-DLBCL cells. The assay is described as follows: Human IL10 Mesoscale assay (OCI-LY3). The assay is classed as cell-based. Particulars: read-out: Human IL10 Mesoscale assay (OCI-LY3). Put shortly: (§1)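 TMD8 or OCI-LY3 ABC-DLBCL cells incubated with compound 24 h at 37° C without beta-mercaptoethanol. Secreted IL6 and IL10 in supernatant quantified by MSD electrochemiluminescence immunoassay; DMSO wells define maximum signal.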

Assay [4] concerns Secretion of IL6 by OCI-LY3 ABC-DLBCL cells. The assay is described as follows: Human IL6 Mesoscale assay (OCI-LY3). Particulars: read-out: Human IL6 Mesoscale assay (OCI-LY3). The assay is classed as cell-based. Put shortly: as §1
The mark [5] stands for this setting: OCI-LY3 cells, 24 h incubation, supernatant, MSD V-Plex.

Our source for the IC50 values is patent US11040031B2, “Pyrazole derivatives as MALT1 inhibitors” (Janssen Pharmaceutica NV, priority 2018, dated 2021).

Read-outs that look alike come from different tables or passages of the source.

With `N#Cc1cc(NC(=O)c2cnn(-c3ccc(F)cc3Br)c2C(F)(F)F)cnc1-n1nccn1` [Cpd 50, 1-(2-bromo-4-fluorophenyl)-N-(5-cyano-6-(2H-1,2,3-triazol-2-yl)pyridin-3-yl)-5-(trifluoromethyl)-1H-pyrazole-4-carboxamide], the IC50 was 1070 nM in assay [1] and 54 nM in assay [2].

On to `COc1cc(F)ccc1-n1ncc(C(=O)Nc2cnc(-n3nccn3)c(C#N)c2)c1C(F)(F)F` [Cpd 54, N-(5-cyano-6-(2H-1,2,3-triazol-2-yl)pyridin-3-yl)-1-(4-fluoro-2-methoxyphenyl)-5-(trifluoromethyl)-1H-pyrazole-4-carboxamide], for which the IC50 in assay [1] was found to be 1620 nM; in assay [2], 89 nM.

Turning to `Cc1ccccc1-n1ncc(C(=O)Nc2cnc(-n3nccn3)c(C#N)c2)c1C(F)(F)F` [Cpd 55, N-(5-cyano-6-(2H-1,2,3-triazol-2-yl)pyridin-3-yl)-1-(o-tolyl)-5-(trifluoromethyl)-1H-pyrazole-4-carboxamide], the values for the IC50 in assay [1] and in assay [2] were 3390 nM and 62 nM, respectively.

For the compound `N#Cc1cc(NC(=O)c2cnn(-c3cccc(F)c3Cl)c2C(F)(F)F)cnc1-n1nccn1` [Cpd 61, 1-(2-chloro-3-fluorophenyl)-N-(5-cyano-6-(2H-1,2,3-triazol-2-yl)pyridin-3-yl)-5-(trifluoromethyl)-1H-pyrazole-4-carboxamide], the IC50 in assay [1] came to 1860 nM; in assay [2], 78 nM.

Take `Cc1cc(F)ccc1-n1ncc(C(=O)Nc2cnc(-n3nccn3)c(C#N)c2)c1C(F)(F)F` [Cpd 64, N-(5-cyano-6-(2H-1,2,3-triazol-2-yl)pyridin-3-yl)-1-(4-fluoro-2-methylphenyl)-5-(trifluoromethyl)-1H-pyrazole-4-carboxamide]: the IC50 in assay [1] came to 1550 nM; in assay [2], 54 nM.

With `O=C(Nc1cnc(-n2nccn2)c(Cl)c1)c1cnn(-c2cccc(F)c2Cl)c1C(F)(F)F` [Cpd 82, 1-(2-chloro-3-fluorophenyl)-N-(5-chloro-6-(2H-1,2,3-triazol-2-yl)pyridin-3-yl)-5-(trifluoromethyl)-1H-pyrazole-4-carboxamide], the IC50 was 3390 nM in assay [1] and 162 nM in assay [2].

Consider `Cc1ccc(N)nc1-n1ncc(C(=O)Nc2cnc(-n3nccn3)c(Cl)c2)c1C(F)(F)F` [Cpd 185, 1-(6-amino-3-methylpyridin-2-yl)-N-(5-chloro-6-(2H-1,2,3-triazol-2-yl)pyridin-3-yl)-5-(trifluoromethyl)-1H-pyrazole-4-carboxamide], for which the IC50 came out at 355 nM in assay [3] (setting [5]), 490 nM in assay [4] (setting [5]) and 331 nM in assay [2].

For `Cc1cc(-n2nccn2)c(Cl)cc1NC(=O)c1cnn(-c2ccc(F)c(N)n2)c1C(F)(F)F` [Cpd 193, 1-(6-amino-5-fluoropyridin-2-yl)-N-(5-chloro-2-methyl-4-(2H-1,2,3-triazol-2-yl)phenyl)-5-(trifluoromethyl)-1H-pyrazole-4-carboxamide], the IC50 in assay [3] (setting [5]) came out at 741 nM; in assay [4] (setting [5]), 871 nM; in assay [2], 1170 nM.

`Cc1cc(-n2nccn2)c(C#N)cc1NC(=O)c1cnn(-c2ccc(F)c(N)n2)c1C(F)(F)F` [Cpd 195, 1-(6-amino-5-fluoropyridin-2-yl)-N-(5-cyano-2-methyl-4-(2H-1,2,3-triazol-2-yl)phenyl)-5-(trifluoromethyl)-1H-pyrazole-4-carboxamide]: the IC50 is 1860 nM in assay [3] (OCI-Ly3, 24 h); 5370 nM in assay [4] (OCI-Ly3, 24 h); 1200 nM in assay [2].

As for `Cc1nc(-n2nccn2)c(C#N)cc1NC(=O)c1cnn(-c2ccc(Cl)c(N)n2)c1C(F)(F)F` [Cpd 200, 1-(6-amino-5-chloropyridin-2-yl)-N-(5-cyano-2-methyl-6-(2H-1,2,3-triazol-2-yl)pyridin-3-yl)-5-(trifluoromethyl)-1H-pyrazole-4-carboxamide], the IC50 worked out at 245 nM in assay [3] (setting [5]), 794 nM in assay [4] (setting [5]) and 275 nM in assay [2].
